Patent US20230151025A1, “SUBSTITUTED THIAZOLOPYRIDINES, SALTS THEREOF AND THEIR USE AS HERBICIDALLY ACTIVE SUBSTANCES” (Bayer Aktiengesellschaft, priority 2020, published 2023)

system: Kochia scoparia (KCHSC; Bassia scoparia); experiment: Herbicidal pre-emergence action (A), 1280 g/ha; format: in vivo; settings: visual grading after ca. 3 weeks vs untreated controls
From the text: (§1) ABUTH: Abutilon theophrasti AGSTE: Agrostis tenuis ALOMY: Alopecurus myosuroides AMARE Amaranthus retroflexus DIGSA: Digitaria sanguinalis ECHCG: Echinochloa crus-galli KCHSC: Kochia scoparia LOLRI: Lolium rigidum MATIN: Matricaria inodora POAAN: Poa annua POLCO: Polygonum convolvulus SETVI: Setaria viridis STEME: Stellaria media VERPE: Veronica persica VIOTR: Viola tricolor
(§2) Seeds of mono- and dicotyledonous weed plants were sown in plastic pots (double sowings with one species of mono- and one species of dicotyledonous weed plants per pot), in sandy loam, and covered with soil. The compounds according to the invention, formulated in the form of wettable powders (WP) or as emulsifiable concentrates (EC), were applied to the surface of the covering soil as aqueous suspension or emulsion, with the addition of 0.5% of an additive, at an application rate of 600 l of water per hectare (converted). Following treatment, the pots were placed in a greenhouse and kept under optimum growth conditions for the test plants. The visual grading of the damage to the test plants was carried out after ca. 3 weeks in comparison to untreated controls (herbicidal effect in percent (%): 100% effect=plants have died off, 0% effect=as control plants).
(§3) Tables A1 to A12, below, show the effects of selected compounds of the general formula (I) according to table 1 on various harmful plants and an application rate corresponding to 1280 g/ha obtained by the experimental procedure mentioned above.

Compound | herbicidal effect KCHSC
N#CCc1nc2nc(-c3ccccc3F)c(Br)cc2s1 [Example I-071] | 90%
Cc1sccc1-c1ccc2scnc2n1 [Example I-133] | 90%
Cc1cc2sc(S)nc2nc1-c1ccccc1Cl [Example I-169] | 90%

system: Alopecurus myosuroides (ALOMY); experiment: Herbicidal pre-emergence action (A), 1280 g/ha; format: in vivo; settings: visual grading after ca. 3 weeks vs untreated controls, 100% = plants have died off, 0% = as control plants
From the text: as §1, §2, §3

Compound | ALOMY, herbicidal effect in percent (%)
CCOC(=O)C(C#N)c1nc2nc(-c3ccccc3F)c(Br)cc2s1 (stereo not drawn) [Example I-086] | 90%
Cc1sccc1-c1ccc2scnc2n1 [Example I-133] | 100%
Cc1cc2scnc2nc1-c1sc(Br)cc1C [Example I-198] | 100%

system: Amaranthus retroflexus (AMARE); experiment: Herbicidal pre-emergence action (A), 1280 g/ha; format: in vivo; settings: visual grading after ca. 3 weeks vs untreated controls
From the text: as §1, §2, §3

Compound | herbicidal effect AMARE
N#Cc1nc2nc(-c3ccccc3F)c(Br)cc2s1 [Example I-070, 6-bromo-5-(2-fluorophenyl)thiazolo[4,5-b]pyridine-2-carbonitrile] | 100%
N#CCc1nc2nc(-c3ccccc3F)c(Br)cc2s1 [Example I-071] | 90%
Cc1cc2scnc2nc1-c1cccnc1C [Example I-130] | 90%
Cc1sccc1-c1ccc2scnc2n1 [Example I-133] | 90%
Cc1cc2sc(S)nc2nc1-c1ccccc1Cl [Example I-169] | 90%

system: Stellaria media (STEME); experiment: Herbicidal pre-emergence action (A), 1280 g/ha; format: in vivo; settings: visual grading after ca. 3 weeks vs untreated controls
From the text: as §1, §2, §3

Compound | herbicidal effect STEME
N#CCc1nc2nc(-c3ccccc3F)c(Br)cc2s1 [Example I-071] | 90%
Cc1sccc1-c1ccc2scnc2n1 [Example I-133] | 90%
Cc1cc2scnc2nc1-c1sc(Br)cc1C [Example I-198] | 90%

system: Echinochloa crus-galli (ECHCG); experiment: Herbicidal pre-emergence action (A), 1280 g/ha; format: in vivo; settings: visual grading after ca. 3 weeks vs untreated controls, 100% = plants have died off, 0% = as control plants
From the text: as §1, §2, §3

Compound | ECHCG, herbicidal effect in percent (%)
N#CCc1nc2nc(-c3ccccc3F)c(Br)cc2s1 [Example I-071] | 100%
Cc1sccc1-c1ccc2scnc2n1 [Example I-133] | 100%
Cc1cc2sc(S)nc2nc1-c1ccccc1Cl [Example I-169] | 90%
Cc1cc2scnc2nc1-c1sc(Br)cc1C [Example I-198] | 100%

system: Setaria viridis (SETVI); experiment: Herbicidal pre-emergence action (A), 1280 g/ha; format: in vivo; settings: visual grading after ca. 3 weeks vs untreated controls
From the text: as §1, §2, §3

Compound | herbicidal effect SETVI
N#Cc1nc2nc(-c3ccccc3F)c(Br)cc2s1 [Example I-070, 6-bromo-5-(2-fluorophenyl)thiazolo[4,5-b]pyridine-2-carbonitrile] | 100%
N#CCc1nc2nc(-c3ccccc3F)c(Br)cc2s1 [Example I-071] | 90%
Cc1cc2scnc2nc1-c1cccnc1C [Example I-130] | 100%
Cc1sccc1-c1ccc2scnc2n1 [Example I-133] | 100%
Cc1cc2sc(S)nc2nc1-c1ccccc1Cl [Example I-169] | 90%
Cc1cc2scnc2nc1-c1sc(Br)cc1C [Example I-198] | 100%

system: Poa annua (POAAN); experiment: Herbicidal pre-emergence action (A), 1280 g/ha; format: in vivo; settings: visual grading after ca. 3 weeks vs untreated controls, 100% = plants have died off, 0% = as control plants
From the text: as §1, §2, §3

Compound | POAAN, herbicidal effect in percent (%)
COC(=O)c1nc2nc(-c3ccccc3F)c(Br)cc2s1 [Example I-054, methyl 6-bromo-5-(2-fluorophenyl)thiazolo[4,5-b]pyridine-2-carboxylate] | 100%
N#CCc1nc2nc(-c3ccccc3F)c(Br)cc2s1 [Example I-071] | 100%
CCOC(=O)C(C#N)c1nc2nc(-c3ccccc3F)c(Br)cc2s1 (stereo not drawn) [Example I-086] | 90%
Cc1cc2scnc2nc1-c1cccnc1C [Example I-130] | 100%
Cc1sccc1-c1ccc2scnc2n1 [Example I-133] | 90%
Cc1cc2sc(S)nc2nc1-c1ccccc1Cl [Example I-169] | 100%
Cc1cc2scnc2nc1-c1sc(Br)cc1C [Example I-198] | 100%

system: Veronica persica (VERPE); experiment: Herbicidal pre-emergence action (A), 1280 g/ha; format: in vivo; settings: visual grading after ca. 3 weeks vs untreated controls
From the text: as §1, §2, §3

Compound | herbicidal effect VERPE
N#CCc1nc2nc(-c3ccccc3F)c(Br)cc2s1 [Example I-071] | 90%
Cc1sccc1-c1ccc2scnc2n1 [Example I-133] | 90%
Cc1cc2scnc2nc1-c1sc(Br)cc1C [Example I-198] | 90%

system: Lolium rigidum (LOLRI); experiment: Herbicidal pre-emergence action (A), 1280 g/ha; format: in vivo; settings: visual grading after ca. 3 weeks vs untreated controls, 100% = plants have died off, 0% = as control plants
From the text: as §1, §2, §3

Compound | LOLRI, herbicidal effect in percent (%)
N#CCc1nc2nc(-c3ccccc3F)c(Br)cc2s1 [Example I-071] | 100%
Cc1sccc1-c1ccc2scnc2n1 [Example I-133] | 100%
Cc1cc2scnc2nc1-c1sc(Br)cc1C [Example I-198] | 90%

system: Kochia scoparia (KCHSC; Bassia scoparia); experiment: Herbicidal post-emergence action (B), 1280 g/ha; format: in vivo; settings: not given
From the text: as §1
(§4) Seeds of mono- and dicotyledonous weed plants were placed in plastic pots in sandy loam soil (doubly sown with in each case one species of mono- or dicotyledonous weed plants per pot), covered with soil and cultivated in a greenhouse under controlled growth conditions. 2 to 3 weeks after sowing, the test plants were treated at the one-leaf stage. The compounds of the invention, formulated in the form of wettable powders (WP) or as emulsion concentrates (EC), were applied onto the green parts of the plants as aqueous suspension or emulsion with addition of 0.5% additive at a water application rate of 600 liters per hectare (converted). After the test plants had been kept in the greenhouse under optimum growth conditions for about 3 weeks, the activity of the preparations was rated visually in comparison to untreated controls. For example, 100% activity=the plants have died, 0% activity=like control plants.
(§5) Tables B1 to B12, below, show the effects of selected compounds of the general formula (I) according to table 1 on various harmful plants and an application rate corresponding to 1280 g/ha obtained by the experimental procedure mentioned above.

Compound | herbicidal effect KCHSC
COC(=O)c1nc2nc(-c3ccccc3F)c(Br)cc2s1 [Example I-054, methyl 6-bromo-5-(2-fluorophenyl)thiazolo[4,5-b]pyridine-2-carboxylate] | 90%
N#CCc1nc2nc(-c3ccccc3F)c(Br)cc2s1 [Example I-071] | 90%
CCOC(=O)C(C#N)c1nc2nc(-c3ccccc3F)c(Br)cc2s1 (stereo not drawn) [Example I-086] | 90%
Cc1cc2scnc2nc1-c1cccnc1C [Example I-130] | 90%
Cc1cc2sc(S)nc2nc1-c1ccccc1Cl [Example I-169] | 90%
Cc1cc2scnc2nc1-c1sc(Br)cc1C [Example I-198] | 90%

system: Alopecurus myosuroides (ALOMY); experiment: Herbicidal post-emergence action (B), 1280 g/ha; format: in vivo; settings: rated visually after about 3 weeks vs untreated controls
From the text: as §1, §4, §5

Compound | herbicidal activity ALOMY
N#CCc1nc2nc(-c3ccccc3F)c(Br)cc2s1 [Example I-071] | 90%
CCOC(=O)C(C#N)c1nc2nc(-c3ccccc3F)c(Br)cc2s1 (stereo not drawn) [Example I-086] | 100%
Cc1cc2scnc2nc1-c1sc(Br)cc1C [Example I-198] | 90%

system: Amaranthus retroflexus (AMARE); experiment: Herbicidal post-emergence action (B), 1280 g/ha; format: in vivo; settings: rated visually after about 3 weeks vs untreated controls
From the text: as §1, §4, §5

Compound | herbicidal activity AMARE
COC(=O)c1nc2nc(-c3ccccc3F)c(Br)cc2s1 [Example I-054, methyl 6-bromo-5-(2-fluorophenyl)thiazolo[4,5-b]pyridine-2-carboxylate] | 100%
N#Cc1nc2nc(-c3ccccc3F)c(Br)cc2s1 [Example I-070, 6-bromo-5-(2-fluorophenyl)thiazolo[4,5-b]pyridine-2-carbonitrile] | 100%
N#CCc1nc2nc(-c3ccccc3F)c(Br)cc2s1 [Example I-071] | 90%
CCOC(=O)C(C#N)c1nc2nc(-c3ccccc3F)c(Br)cc2s1 (stereo not drawn) [Example I-086] | 100%
Cc1sccc1-c1ccc2scnc2n1 [Example I-133] | 90%
Cc1cc2sc(S)nc2nc1-c1ccccc1Cl [Example I-169] | 90%
Cc1c(Br)c(-c2ccccc2F)nc2ncsc12 [Example I-186] | 100%

system: Stellaria media (STEME); experiment: Herbicidal post-emergence action (B), 1280 g/ha; format: in vivo; settings: not given
From the text: as §1, §4, §5

Compound | herbicidal effect STEME
N#CCc1nc2nc(-c3ccccc3F)c(Br)cc2s1 [Example I-071] | 90%
Cc1c(Br)c(-c2ccccc2F)nc2ncsc12 [Example I-186] | 90%

system: Echinochloa crus-galli (ECHCG); experiment: Herbicidal post-emergence action (B), 1280 g/ha; format: in vivo; settings: rated visually after about 3 weeks vs untreated controls
From the text: as §1, §4, §5

Compound | herbicidal activity ECHCG
Cc1sccc1-c1ccc2scnc2n1 [Example I-133] | 90%

system: Poa annua (POAAN); experiment: Herbicidal post-emergence action (B), 1280 g/ha; format: in vivo; settings: rated visually after about 3 weeks vs untreated controls
From the text: as §1, §4, §5

Compound | herbicidal activity POAAN
Cc1sccc1-c1ccc2scnc2n1 [Example I-133] | 100%

system: Veronica persica (VERPE); experiment: Herbicidal post-emergence action (B), 1280 g/ha; format: in vivo; settings: not given
From the text: as §1, §4, §5

Compound | herbicidal effect VERPE
COC(=O)c1nc2nc(-c3ccccc3F)c(Br)cc2s1 [Example I-054, methyl 6-bromo-5-(2-fluorophenyl)thiazolo[4,5-b]pyridine-2-carboxylate] | 90%
N#CCc1nc2nc(-c3ccccc3F)c(Br)cc2s1 [Example I-071] | 90%
Cc1cc2scnc2nc1-c1cccnc1C [Example I-130] | 90%
Cc1cc2sc(S)nc2nc1-c1ccccc1Cl [Example I-169] | 90%
Cc1c(Br)c(-c2ccccc2F)nc2ncsc12 [Example I-186] | 90%
Cc1cc2scnc2nc1-c1sc(Br)cc1C [Example I-198] | 100%

system: Abutilon theophrasti (ABUTH); experiment: Herbicidal post-emergence action (B), 1280 g/ha; format: in vivo; settings: rated visually after about 3 weeks vs untreated controls
From the text: as §1, §4, §5

Compound | herbicidal activity ABUTH
COC(=O)c1nc2nc(-c3ccccc3F)c(Br)cc2s1 [Example I-054, methyl 6-bromo-5-(2-fluorophenyl)thiazolo[4,5-b]pyridine-2-carboxylate] | 90%
N#Cc1nc2nc(-c3ccccc3F)c(Br)cc2s1 [Example I-070, 6-bromo-5-(2-fluorophenyl)thiazolo[4,5-b]pyridine-2-carbonitrile] | 90%
Cc1cc2scnc2nc1-c1cccnc1C [Example I-130] | 90%
Cc1sccc1-c1ccc2scnc2n1 [Example I-133] | 90%
Cc1cc2sc(S)nc2nc1-c1ccccc1Cl [Example I-169] | 100%
Cc1c(Br)c(-c2ccccc2F)nc2ncsc12 [Example I-186] | 90%
